Data on four compounds can be found in patent US10184933B2, “Compositions, systems and methods for gene expression noise drug screening and uses thereof” (priority 2013, dated 2019).

The structures appear in SMILES notation. “Also recorded” adds a separate entry of the source. Structures can show the parent of a compound that is named as a salt. Where two headings read alike, the source gives them in different places.

Data set [1] deals with HIV-1 LTR promoter. Type of data set: cell-based. To be noted: FIG. 6D.
In data set [2] the test system is HIV-1 LTR promoter. Put plainly: Two-reporter system (LTR-d2GFP and LTR-mCherry) noise measurement. The following applies: FIG. 6E. It is filed as cell-based. As for the experimental part:
Without being bound by theory, a destabilized reporter is required to observe transcriptional noise with shorter time scales. GFP noise magnitude (quantified by the variance over the mean fluorescence squared, CV^2) and mean fluorescence were measured by high-throughput flow cytometry 24 hours post 10 uM drug exposure. To control for extrinsic variability in gene expression due to cell volume and state a conservative gating on the population forward versus side scatter was applied (See General Methods). A second LTR driving a long-lived mCherry reporter was integrated and screened alongside the destabilized reporter drug target to control for fluctuations in global resources and post-transcriptional noise sources (FIG. 6E).
To distinguish between compounds that primarily target transcription versus post-transcriptional processes and global resources (extrinsic noise) a second reporter of the LTR promoter driving a stable mCherry gene was included in the same targeted cell population used in the drug noise screen (FIG. 6E). The stable reporter averages out and is unaffected by fluctuations due to episodic transcription. Theory predicts that the destabilized d2GFP reporter can detect transcriptional bursting noise contributions (γp>>kon,koff, where γp is the fluorescent reporter degradation rate) while the two reporters together will move their noise magnitudes to changes in non-transcriptional noise sources. Filtering out non-transcriptional noise signatures of VM hits increases the probability for synergistic reactivation of latency. Noise from the two reporters was compared using the same processing as the LTR-d2GFP. The LTR-mCherry ΔCV^2 of the 85 selected VMs primarily land along the ΔCV^2 d2GFP axis. […]. Of these 25 compounds 15 were identified as modifiers of cell cycle, ATP, inflammation, post-translational modifications, and translation.
In addition to the GFP reporter in the LTR-d2GFP cell line, an LTR driving a long half-life mCherry reporter was present in the cell line. […] To remove compounds that altered CV^2 post transcriptionally, compounds that affected the CV^2 long-lived red reporter while conserving its mean mCherry level were removed. This method continues development of the original and decade-old 2-reporter system for intrinsic versus extrinsic noise measurements in bacteria (Elowitz et al., (2002) Science 297:1183-1186).

For data set [3], the system named is latent HIV-1 in JLat 8.6 cells. It is filed as cell-based.
For data set [4] the following is noted: >500 nM for more than 2 days; Williams et al., 2004; cited from earlier work.
For data set [5], the system named is latent HIV-1 in JLat 9.2 cells. Put plainly: HIV-1 latency reactivation in JLat 9.2 cells. It is filed as cell-based.
Description: Jurkat cells were cultured in RPMI 1640 supplemented with 10% FBS and 1% penicillin-streptomycin. JLat 6.3, JLat 8.6, and JLat 9.2 cells are Jurkat T cell lines containing integrated but transcriptionally latent HIV-1 proviruses.
Drug treatments were performed for 24 hours at 10 uM final concentration in 96-well plates. Compounds were automatically added into 200 μl cultures at the final concentration of 0.1% DMSO. […] Plates were kept in the incubator until measurement and each well was automatically mixed before samples were analyzed. 5×10^4 of all live cells that passed a specific forward scatter (FSC)—side scatter (SSC) gate were collected from each well for noise magnitude measurements from which a conservative gating was applied for about 3×10^3 cells of similar FSC vs SSC to reduce extrinsic noise contributions primarily due to differences in cell volume and state. Each 96-well plate included a column of untreated control cells, cells treated with TNFα (positive control) and one well of non-′ fluorescent naïve Jurkat cells. For HIV-1 reactivation experiments 1×10^4 live cells were collected.
In data set [6] the test system is latent HIV-1 in JLat 15.4. Put plainly: HIV-1 latency reactivation in JLat 15.4 cells. It is filed as cell-based.
Data set [7] has as its system latent HIV-1 in primary T-cells. Type of data set: cell-based. To be noted: primary T-cell model. As for the experimental part: FIG. 18A schematically depicts a primary T-cell model of HIV-1 latency 48 h after reactivation with PMA or a subset of noise enhancers (% reactivation percentage is calculated relative to maximal reactivation potential). […] The horizontal line represents the mean calculated Bliss Independence Score (C. I. Bliss, Ann. Appl. Biol. 26:585-615 (1939)), a measure for strict additivity for all of the compounds. FIG. 18B schematically depicts stochastic simulations of noise suppression, which reduces noise without altering the mean expression level but limits reactivation induced by an activator. […] Details are described, e.g., in Example 10.

Data set [8] deals with HIV-1 LTR promoter. The following applies: shotgun imaging approach, Boehm et al., 2013; cited from earlier work.
Another data set relates to latent HIV-1. The following applies: Bocklandt et al., 2003; cited from earlier work.
[9] abbreviates: known transcriptional modulators applied to the isoclone target.
Setting [10] is: known transcriptional activators.

`CC(=O)O[C@@]12C[C@@H](C)[C@@]3(O)[C@@H](C=C(CO)C[C@]4(O)C(=O)C(C)=C[C@@H]34)[C@@H]1C2(C)C` [Prostratin, 12-deoxyphorbol 13-acetate]: the burst frequency result in the data set on HIV-1 LTR promoter [1] (activator drugs) is given as “increase burst frequency”. Besides, in the data set with HIV-1 LTR promoter [1] (setting [9]), the mean expression level entry is on record as “increase mean expression level” and the “variability in gene expression (noise magnitude)” value (from here on “variability in gene expression”) is on record as “decrease noise magnitude”. Moreover, in the data set on HIV-1 LTR promoter [1] (known transcriptional modulators applied to the isoclone target, listed as prostratin), the “variability in gene expression” value was “decrease variability in gene expression”. Also, in the data set with HIV-1 LTR promoter [2] (setting [10]), the d2GFP noise entry is “decrease both mCherry and d2GFP noise”; the mCherry noise result is “decrease both mCherry and d2GFP noise”. Also, in the data set on HIV-1 LTR promoter [2] (transcriptional modifiers), the “transcriptional burst frequency (decreasing noise in mCherry)” value is listed as “increase transcriptional burst frequency”. Moreover, the “reactivation by activator alone” value in data set [3] (Prostratin alone, 48 hr) worked out at 6%. Further, the toxicity entry in data set [4] was “substantial growth arrest and cell death”.

For the compound `COC(=O)C1=C(C)NC(C)=C(C(=O)OCCN2CCN(C(c3ccccc3)c3ccccc3)CC2)C1c1cccc([N+](=O)[O-])c1` (stereo not shown) [VS1, manidipine hydrochloride], the “decrease of TNF-induced reactivation” value in [3] (JLat 8.6) and in data set [6] was around 40% each time. In addition, the “decrease of TNFα-mediated reactivation” value in [5] is given as “about 40%”. Besides, the “decrease of Prostratin-induced reactivation” value in [7] is recorded as around 50%.

As for `Cc1sc2c(c1C)C(c1ccc(Cl)cc1)=N[C@@H](CC(=O)OC(C)(C)C)c1nnc(C)n1-2` [JQ1, t-Butyl-2-((6S)-4-(4-chlorophenyl)-2,3,9-trimethyl-6H-thieno[3,2-f][1,2,4]triazolo[4,3-a][1,4]diazepin-6-yl)acetate], the “variability in gene expression” value in the data set on HIV-1 LTR promoter [1] (setting [9]) is recorded as “increase variability in gene expression; also recorded: variability enhancers”. The “noise magnitude across integration sites” value in the data set with HIV-1 LTR promoter [8] is given as “global increase in noise magnitude”.

For `CC1=C[C@H]2[C@@]3(O)[C@H](C)C[C@]4(OC(=O)Cc5ccccc5)C([C@@H]3C=C(CO)C[C@]2(O)C1=O)C4(C)C` (stereo partly shown) [DPP, 12-deoxyphorbol 13-phenylacetate], in the data set on latent HIV-1, the “potency relative to prostratin” value is reported as 20-40 fold.
